Data reported in patent US20240390581A1, “METHOD AND APPARATUS FOR A STEADY STATE INT[…] OF SEROTONERGIC DRUGS” (PSOULMED, LLC, priority 2021, published 2024).

Key:
vein = assay: Additives to the intravenous DMT infusion, flow rate and venous injury; format: in vivo; settings: magnesium 0.1 mg/mL to 100 mg/mL in DMT infusion or maintenance line
Text: In this respect, the inventors addressed the following goals: • 1. […] A method for combining goals 1 and/or 2 with nitroglycerine ointment on the vein to be cannulated prior to gaining intravenous access, which improves vein patency and dilution from blood flow as well as normal saline. • 4. A method for creating an injectable form of a DMT salt such as fumarate, or freebase DMT in a solution or suspension or emulsion in an iso-osmolar or near iso-osmolar carrier such as hyaluronic acid or polyethylene glycol, as to minimize molecular interaction with the walls and endothelium of the peripheral vasculature, while maintaining water soluble or miscible properties as to not adversely affect the pharmacokinetics. • 5. A method for utilizing goal 4, with any other drug or substance that may cause venous irritation, to minimize the risk of thrombophlebitis, such as nanoparticles or crystals in suspension, or similarly, chemotherapeutic drugs, anesthetic agents and the like.

[1] = Transfer rate constants of the Gallimore-Strassman two-compartment model, calculated from G-S Table 2; design: species or system human
Text: For consistency with the G-S model, referred to here as FIG. 1 is the (prior art) model from the 2016 paper by Gallimore Strassman (prior art), where: • k10 rate of elimination from the central compartment (min^−1) • k12 transfer rate from central to peripheral compartment (min^−1) • T same as k12 • k21 transfer rate from peripheral to central compartment (min^−1) • K1e transfer rate from central compartment to effect site (min^−1) • Ke0 rate of elimination of drug from the effect site (min^−1) E same as ke0 • CT plasma concentration (mg/ml) • RT rate at which drug reaches the effect site (mg/min) • [C] DMT concentration in the central compartment (mg/ml) • [P] DMT concentration in the peripheral compartment (mg/ml) […].
It should be appreciated that the notation used in the prior art (G-S) is very different from the notation used herein in developing the models in the present disclosure. In G-S (p. 5), E is used for the elimination rate, without it being made clear if this is the elimination rate from the effect site or from the central compartment. Also, T is used interchangeably with k12 from G-S FIG. 1. The extra parameters in G-S Table 2, Vc (L), Vp (L), Km (mg/L), Vm (mg/min), Q12 (L/min) are not defined, modulo a minor footnote (bottom of p. 4) stating that:

infusion veins = assay: Venous response to intravenous administration of DMT; format: in vivo
Text: A second, and perhaps more serious issue, with the Gallimore Strassman paper is the administration of DMT intravenously. […] This is especially true of serotonergic drugs which, as noted, can be phlebitic at the site of administration. This in combination with probable chemical irritation, even with iso-osmolar concentrations buffered to a physiologic pH (using DMT fumarate or similar salt), intravenous thrombophlebitis can occur at a rate

humans [2] = settings: IV single bolus; cited from earlier work
subject [3] = settings: believed, not measured; cited from earlier work
[4] = higher dose, 0.4 mg/kg bolus (G-S FIG. 2A); cited from earlier work
humans [5] = settings: cited from earlier work
[6] = cited from earlier work
subject [7] = assay: Intramuscular bolus plus infusion of DMT, subject-reported effects; format: in vivo, human
Description: In intramuscular infusion, the muscle is first loaded which then diffuses into the peripheral soft tissues, the lymphatics and blood, and then the CNS. The result is a very gentle rise in effect, with the earliest effects usually noticed within the first 2 minutes, and the subject experiencing threshold effects somewhere between 5 and 15 minutes. The intensification of the experience is slow, and while there is some overshoot, it is quite manageable, and usually lasts for only minutes. The key here is turning the pump off when the ideal state is reached, or at the earliest sign of being above the ideal level and reporting when those levels have been achieved.
The same assumptions for IV infusion are made with IM infusion, a 75 kg individual who identifies smoking 25 mg of DMT as an ideal dose. A muscle should be chosen for access with the infusion needle. While any muscle will work, the most favorable option is probably the anterolateral thigh. This allows the patient to be positioned supine comfortably. If the anterolateral thigh is chosen, appropriate garments should be worn by the patient to expose the thigh in a manner that is suitable for access. […]
When the subject is ready, the bolus dose is administered over a short amount of time, preferably about 60 seconds, from time t=0 to t=1 minute. […]

[8] = inhaling vaporized or smoked DMT, or single IV bolus

SMILES | effect on venous injury (vein) | k12, transfer rate from central to peripheral compartment ([1]; 0.2 mg/kg) [min⁻¹] | k21, transfer rate from peripheral to central compartment ([1]; 0.2 mg/kg) [min⁻¹] | k12, transfer rate from central to peripheral compartment ([1]; 0.4 mg/kg) [min⁻¹] | k21, transfer rate from peripheral to central compartment ([1]; 0.4 mg/kg) [min⁻¹] | venous effects of intravenous administration (infusion veins) | onset of psychological effects (humans [2]) | time by which psychological effects were almost completely resolved (humans [2]) [minutes] | time of peak psychological effects (humans [2]) [seconds] | CNS concentration equating to a full experience (subject [3]) | CNS concentration equating to a threshold experience (subject [3]) | blood concentration [4] [ng/mL] | duration of experience (humans [5]; [8]) [min] | time of peak experience (humans [5]; [8]) | effect of oral ingestion (humans [5]; oral ingestion, rapid metabolism by monoamine oxidase) | biological half-life ([6]; in vivo) | half-life of injected DMT ([6]; injected) | time to earliest drug effects (subject [7]) [min] | time for drug effects to fully abate after pump is turned off (subject [7]; pump off)
[Mg+2] [magnesium] | decrease venous injury | – | – | – | – | – | – | – | – | – | – | – | – | – | – | – | – | – | –
CN(C)CCc1c[nH]c2ccccc12 [DMT, N,N-dimethyltryptamine] | – | 0.3286 | 0.2 | 0.6021 | 0.1647 | causing vasoconstriction, phlebitis and eventual closing of the infusion veins | almost immediately after administration | ≤ 30 | 90 to 120 | roughly 100 ng/ml | roughly 60 ng/ml | 100 | 10 to 15 | around 5 minutes | virtually no effect | in the range of minutes | about 15 minutes | ≤ 2 | within about an hour or less
